The target in one data set is T1, OATP1B3 (Homo sapiens, UniProt Q9NPD5).
T1 construct: expressed in transfected cells
T1 sequence (Q9NPD5 1-702): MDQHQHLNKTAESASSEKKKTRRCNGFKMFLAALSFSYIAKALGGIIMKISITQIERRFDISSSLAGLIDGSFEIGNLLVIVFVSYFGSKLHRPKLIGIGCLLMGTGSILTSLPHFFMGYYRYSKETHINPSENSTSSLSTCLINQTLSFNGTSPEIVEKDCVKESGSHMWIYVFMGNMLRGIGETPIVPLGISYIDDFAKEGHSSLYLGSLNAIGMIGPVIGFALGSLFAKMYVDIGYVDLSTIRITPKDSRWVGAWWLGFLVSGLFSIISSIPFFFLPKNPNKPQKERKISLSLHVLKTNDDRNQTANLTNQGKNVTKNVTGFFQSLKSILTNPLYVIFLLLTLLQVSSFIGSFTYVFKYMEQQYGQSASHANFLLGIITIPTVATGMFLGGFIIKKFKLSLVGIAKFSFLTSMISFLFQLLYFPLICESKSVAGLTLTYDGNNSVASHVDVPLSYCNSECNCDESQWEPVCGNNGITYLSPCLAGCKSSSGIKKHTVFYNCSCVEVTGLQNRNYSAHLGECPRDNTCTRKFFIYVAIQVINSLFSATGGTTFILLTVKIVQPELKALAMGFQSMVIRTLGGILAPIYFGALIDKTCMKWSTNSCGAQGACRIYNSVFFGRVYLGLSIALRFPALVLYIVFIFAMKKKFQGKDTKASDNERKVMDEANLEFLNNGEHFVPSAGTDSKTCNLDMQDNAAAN
As to the kind of experiment: Remdesivir uptake into HEK cells stably expressing OATP1B3 vs vector control. In kind it is in vitro ADME. As to conditions: 5 µM remdesivir, 10 min, transporter-expressing vs control HEK cells. The text has this:
(§1) Generation, cultivation and characterization of human embryonic kidney (HEK) cells stably expressing OATP1B1 refseq (=OATP1B1*1a), OATP1B1*1b, OATP1B1*5 and OATP1B1*15 [18], OATP1B3 [19], OATP2B1 [13] and OCT1 [20] have been described previously. OATP1B1 cells were cultivated in minimal essential medium (Life Technologies, Paisley, UK) and OATP1B3, OATP2B1 and OCT1 cells were cultivated in Dulbecco’s modified Eagle medium (Sigma, Darmstadt, Germany). Cultivation media were supplemented with 10% fetal calf serum, 100 U/mL penicillin and 100 µg/mL streptomycin. Cells were grown at 37 °C and 5% CO2. Functionality of the cells was confirmed by measuring uptake of prototypic substrates (see Section 2.3 and supplementary material).
Uptake assays were conducted at 37 °C according to previously described methods. For this, cells were seeded in 24-well plates (320,000 cells/well) and cultured for 2 days. Cells were then incubated for a further 24 h in culture medium with 5 mM butyrate (OATP1B3, OATP2B1, OCT1) or 10 mM butyrate (OATP1B1) to increase protein levels of recombinant transporters. […]
(§2) Remdesivir was determined by UHPLC-MS-MS analysis on an Agilent 1290 infinity UHPLC system coupled to an Agilent 6495B triple quadrupole mass spectrometer (Agilent, Waldbronn, Germany) similar to a recently published method. […]

A further data set concerns the target T2, OATP1B1 (Homo sapiens, UniProt Q9Y6L6).
T2 construct: expressed in transfected cells
T2 sequence (Q9Y6L6 1-691): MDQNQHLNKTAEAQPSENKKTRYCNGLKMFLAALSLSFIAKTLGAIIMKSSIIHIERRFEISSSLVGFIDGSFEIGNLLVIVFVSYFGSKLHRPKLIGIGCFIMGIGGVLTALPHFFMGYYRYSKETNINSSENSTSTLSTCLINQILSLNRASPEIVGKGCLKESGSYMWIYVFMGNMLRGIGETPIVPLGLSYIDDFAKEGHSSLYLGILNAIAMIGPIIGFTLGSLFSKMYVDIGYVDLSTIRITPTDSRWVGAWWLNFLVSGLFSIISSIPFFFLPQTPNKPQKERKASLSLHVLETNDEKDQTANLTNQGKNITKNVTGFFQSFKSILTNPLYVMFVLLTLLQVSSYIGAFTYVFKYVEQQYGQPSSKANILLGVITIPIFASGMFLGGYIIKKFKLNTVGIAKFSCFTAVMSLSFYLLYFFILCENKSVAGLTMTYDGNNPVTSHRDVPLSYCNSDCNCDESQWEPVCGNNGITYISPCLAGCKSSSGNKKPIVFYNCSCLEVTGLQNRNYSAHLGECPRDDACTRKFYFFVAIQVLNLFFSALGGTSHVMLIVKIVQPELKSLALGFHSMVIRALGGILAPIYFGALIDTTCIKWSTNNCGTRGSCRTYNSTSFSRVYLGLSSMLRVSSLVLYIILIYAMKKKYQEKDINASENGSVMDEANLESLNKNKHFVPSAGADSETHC
The experiment in a line: Remdesivir uptake into HEK cells stably expressing OATP1B1 (*1a) vs vector control. In kind it is in vitro ADME. As to conditions: 5 µM remdesivir, 10 min.
Excerpt: as §1
Uptake assays were conducted at 37 °C according to previously described methods. For this, cells were seeded in 24-well plates (320,000 cells/well) and cultured for 2 days. Cells were then incubated for a further 24 h in culture medium with 5 mM butyrate (OATP1B3, OATP2B1, OCT1) or 10 mM butyrate (OATP1B1) to increase protein levels of recombinant transporters. Before the uptake experiments, cells were washed with the respective pre-warmed (37 °C) uptake buffer. The compositions of the uptake buffers were as follows: for OATP1B1, OATP1B3, OATP2B1: 142 mM NaCl, 12.5 mM hydroxyethylpiperazine ethanesulfonic acid, 5 mM KCl, 1 mM KH2PO4, 1.5 mM CaCl2, 1.2 mM MgSO4, 5 mM glucose, pH 7.3; for OCT1: 145 mM NaCl, 5 mM hydroxyethylpiperazine ethanesulfonic acid, 3 mM KCl, 1 mM CaCl2, 0.5 mM MgCl2, 5 mM glucose, pH 7.4. Uptake was initiated by replacing this solution with uptake buffer containing different concentrations of remdesivir as indicated. […]
as §2

Data on one compound can be found in publication PMC7999182, “Interaction of Remdesivir with Clinically Relevant Hepatic Drug Uptake Transporters” (Pharmaceutics, 2021).

The structures appear in SMILES notation.

For `CCC(CC)COC(=O)[C@H](C)N[P@](=O)(OC[C@H]1O[C@@](C#N)(c2ccc3c(N)ncnn23)[C@H](O)[C@@H]1O)Oc1ccccc1` [Remdesivir], the Remdesivir uptake ratio amounted to 1.5 on OATP1B3 and 1.3 on OATP1B1 (transporter-expressing vs control HEK cells). Moreover, the “Significance of uptake vs control cells” value at OATP1B1 is “Statistically significant uptake”. The “Accumulation vs vector-transfected control cells” value at OATP1B1 (OATP1B1*1a cells) was “moderately higher”.
